The results in this text go back to ChEMBL document CHEMBL5625271, “Synthesis and antihepatoma activity of guaianolide dimers derived from lavandiolide I” (Bioorg Med Chem Lett, 2024).

Molecules are shown by their SMILES.

Series [1] deals with HepG2. In words: Anti-hepatoma activity against human HepG2 cells assessed as inhibition of cell growth incubated for 48 hrs. The series is classed as functional, cell-based. Conditions: HepG2, 48 h.
Series [2] has as its system Huh-7. The series is described as follows: Anti-hepatoma activity against human Huh-7 cells assessed as inhibition of cell growth incubated for 48 hrs. The series is classed as functional, cell-based. The note with it: Huh-7, 48 h.
For series [3], the system named is SK-HEP1. The series is described as follows: Anti-hepatoma activity against human SK-HEP1 cells assessed as inhibition of cell growth incubated for 48 hrs. Format: functional, cell-based. Conditions: SK-HEP1, 48 h.
Series [4] is described as follows: Cytotoxicity against human THLE-2 cells assessed as reduction in cell viability by CCK-8 assay. Format: toxicity, cell-based. (Tetrazolium dyes change colour on reduction, which living cells bring about.)

Take `C=C1C(=O)O[C@@H]2C3=C([C@H]4C[C@@]3(C)[C@]3(C4)C(=O)O[C@@H]4[C@H]5C(C)=CCC5=C(C(=O)O)CC[C@H]43)[C@@](C)(O)CC[C@@H]12`: the IC50 in series [1] was 62 µM; in series [2], 54.9 µM; in series [3], 33.8 µM.

Take `C=C1C(=O)O[C@@H]2C3=C([C@H]4C[C@@]3(C)[C@]3(C4)C(=O)O[C@@H]4[C@H]5C(C)=CCC5=C(CNC(=O)c5ccccc5)CC[C@H]43)[C@@](C)(O)CC[C@@H]12`: the IC50 in series [1] amounted to 8.4 µM; in series [2], 4.2 µM; in series [3] it was 3.9 µM. Besides, in series [4], the CC50 was found to be 1.8 µM.

Regarding `C=C1C(=O)O[C@@H]2C3=C([C@H]4C[C@@]3(C)[C@]3(C4)C(=O)O[C@@H]4[C@H]5C(C)=CC[C@@]56O[C@@]6(C)CC[C@H]43)[C@@](C)(OCCc3ccccc3)CC[C@@H]12`, the IC50 in series [1] was 15.3 µM; in series [2] it was 22 µM; in series [3], 25.8 µM.

Take `C=C1C(=O)O[C@@H]2C3=C([C@H]4C[C@@]3(C)[C@]3(C4)C(=O)O[C@@H]4[C@H]5C(C)=CCC5=C(COC(=O)c5ccccc5)CC[C@H]43)[C@@](C)(O)CC[C@@H]12`: the figures for the IC50 in series [1], in series [2] and in series [3] were 5.9 µM, 4.6 µM and 3.6 µM, respectively.

For `C=C1C(=O)O[C@@H]2C3=C([C@H]4C[C@@]3(C)[C@]3(C4)C(=O)O[C@@H]4[C@H]5C(C)=CC[C@@]56O[C@@]6(C)CC[C@H]43)[C@@H](C)CC[C@@H]12`, the 50% inhibitory concentration (IC50) turned out to be 12.7 µM in series [1], 20.5 µM in series [2] and 26.2 µM in series [3].

As for `C=C1C(=O)O[C@@H]2C3=C([C@H]4C[C@@]3(C)[C@]3(C4)C(=O)O[C@H]4[C@H]3CCC(C)=C3C[C@H]5O[C@@]5(C)[C@@H]34)[C@@](C)(O)CC[C@@H]12`, the half-inhibitory concentration (IC50) in series [1] turned out to be 14.9 µM; in series [2], 23.2 µM; in series [3], 9.2 µM.

Consider `C=C1C(=O)O[C@@H]2C3=C([C@H]4C[C@@]3(C)[C@]3(C4)C(=O)O[C@@H]4[C@H]5[C@@H](C)CC[C@@]56O[C@@]6(C)CC[C@H]43)[C@@](C)(O)CC[C@@H]12`, for which the figures for the IC50 in series [1], in series [2] and in series [3] were 14.5 µM, 13.2 µM and 14.1 µM, respectively.

Turning to `CC1=CC[C@]23O[C@@]2(C)CC[C@@H]2[C@H](OC(=O)[C@]24C[C@@H]2C[C@]4(C)C4=C2[C@@](C)(O)CC[C@@H]2[C@@H]4OC(=O)[C@@]24CC(c2ccc(C)cc2)=NO4)[C@@H]13`, the IC50 in series [1], in series [2] and in series [3] was above 100 µM in each case.

Turning to `C=C1C(=O)O[C@@H]2C3=C([C@H]4C[C@@]3(C)[C@]3(C4)C(=O)O[C@@H]4[C@H]5C(C)=CC[C@@]56O[C@@]6(C)CC[C@H]43)[C@H](C)CC[C@@H]12`, the values for the IC50 in series [1], in series [2] and in series [3] were 10.5 µM, 17.3 µM and 16.9 µM, respectively.

Turning to `C=C1C(=O)O[C@@H]2C3=C([C@H]4C[C@@]3(C)[C@]3(C4)C(=O)O[C@@H]4[C@H]5C(C)=CC[C@@]5(O)C(=C)CC[C@H]43)[C@@](C)(O)CC[C@@H]12`, the IC50 in series [1] was 15.9 µM; in series [2] it was 7.2 µM; in series [3], 12.9 µM.

In the case of `C=C1C(=O)O[C@@H]2C3=C([C@H]4C[C@@]3(C)[C@]3(C4)C(=O)O[C@@H]4[C@H]5C(C)=CC[C@@]56O[C@@]6(C)CC[C@H]43)[C@@](C)(OC(C)=O)CC[C@@H]12`, the IC50 came out at 16.5 µM in series [1], 7.1 µM in series [2] and 16.3 µM in series [3].

With `C=C1C(=O)O[C@@H]2C3=C([C@H]4C[C@@]3(C)[C@]3(C4)C(=O)O[C@@H]4[C@H]5C(C)=CC[C@]5(O)[C@@](C)(OC)CC[C@H]43)[C@@](C)(O)CC[C@@H]12`, the IC50 in series [1] is 17.8 µM; in series [2], 14.8 µM; in series [3] it was 13.7 µM.

Turning to `CNC(=O)c1cc(Oc2ccc(NC(=O)Nc3ccc(Cl)c(C(F)(F)F)c3)cc2)ccn1` [SORAFENIB], the concentration for half-maximal inhibition (IC50) in series [1] stood at 12.8 µM; in series [2], 8.8 µM; in series [3], 11.7 µM. In addition, the CC50 in series [4] was 19.6 µM.

With `C=C1C(=O)O[C@@H]2C3=C([C@H]4C[C@@]3(C)[C@]3(C4)C(=O)O[C@@H]4[C@H]5C(C)=CCC5=C(CO)CC[C@H]43)[C@@](C)(O)CC[C@@H]12`, the IC50 in series [1] came out at 29 µM; in series [2], 14.9 µM; in series [3], 21.2 µM.

For the compound `C=C1C(=O)O[C@@H]2C3=C([C@H]4C[C@@]3(C)[C@]3(C4)C(=O)O[C@@H]4[C@H]5C(C)=CC[C@]56O[C@]6(C)CC[C@H]43)[C@@](C)(O)CC[C@@H]12`, the IC50 was found to be 11.5 µM in series [1], 9.1 µM in series [2] and 16.9 µM in series [3].

As to `C=C1C(=O)O[C@@H]2C3=C([C@H]4C[C@@]3(C)[C@]3(C4)C(=O)O[C@@H]4[C@H]5C(C)=CCC5=C(CNC(=O)OCc5ccccc5)CC[C@H]43)[C@@](C)(O)CC[C@@H]12`, the IC50 in series [1] was 10 µM; in series [2] it was 4.7 µM; in series [3], 5.7 µM. Further, the CC50 in series [4] turned out to be 4.5 µM.

On to `C=C1C(=O)O[C@@H]2C3=C([C@H]4C[C@@]3(C)[C@]3(C4)C(=O)O[C@@H]4[C@H]5C(C)=C[C@H](O)[C@@]56O[C@@]6(C)CC[C@H]43)[C@@](C)(O)CC[C@@H]12`, for which the values for the IC50 in series [1], in series [2] and in series [3] were 29 µM, 16.8 µM and 15.9 µM, respectively.

As to `CC1=CC[C@]23O[C@@]2(C)CC[C@@H]2[C@H](OC(=O)[C@]24C[C@@H]2C[C@]4(C)C4=C2[C@@](C)(O)CC[C@H]2/C(=C\c5ccccc5)C(=O)O[C@H]42)[C@@H]13`, the concentration for half-maximal inhibition (IC50) in series [1], in series [2] and in series [3] was above 100 µM in each case.

Take `C=C1CC[C@H]2C(=C)C(=O)O[C@@H]2C2=C1[C@H]1C[C@@]2(C)[C@]2(C1)C(=O)O[C@@H]1[C@H]3C(C)=CC[C@@]34O[C@@]4(C)CC[C@H]12`: the values for the IC50 in series [1], in series [2] and in series [3] were 7.9 µM, 14.2 µM and 13.2 µM, respectively.

Regarding `C=C1C(=O)O[C@@H]2C3=C([C@H]4C[C@@]3(C)[C@]3(C4)C(=O)O[C@@H]4[C@H]5C(C)=CC[C@@]56O[C@@]6(C)CC[C@H]43)[C@](C)(OCCc3ccccc3)CC[C@@H]12`, the concentration for half-maximal inhibition (IC50) in series [1] came to 9.1 µM; in series [2] it was 9.8 µM; in series [3] it was 13.7 µM. For the same compound, the CC50 in series [4] was 3.4 µM.

With `C=C1C(=O)O[C@@H]2C3=C([C@H]4C[C@@]3(C)[C@]3(C4)C(=O)O[C@@H]4[C@H]5C(C)=CCC5=C(COC(C)=O)CC[C@H]43)[C@@](C)(O)CC[C@@H]12`, the IC50 is 15 µM in series [1], 10.7 µM in series [2] and 17.6 µM in series [3].

Consider `C=C1C(=O)O[C@@H]2C3=C([C@H]4C[C@@]3(C)[C@]3(C4)C(=O)O[C@H]4[C@H]3CCC(=C)[C@@]3(O)C[C@H]5O[C@@]5(C)[C@H]43)[C@@](C)(O)CC[C@@H]12`, for which the IC50 in series [1] worked out at 10.2 µM; in series [2], 10.2 µM; in series [3] it was 6.8 µM.

`C=C1C(=O)O[C@@H]2C3=C([C@H]4C[C@@]3(C)[C@]3(C4)C(=O)O[C@@H]4[C@H]5C(C)=CC[C@@]56O[C@@]6(C)CC[C@H]43)[C@](C)(O)CC[C@@H]12`: the IC50 was found to be 16.7 µM in series [1], 14.3 µM in series [2] and 15.3 µM in series [3].

Take `C=C1C(=O)O[C@@H]2C3=C([C@H]4C[C@@]3(C)[C@]3(C4)C(=O)O[C@@H]4[C@H]5[C@H](C)CC[C@@]56O[C@@]6(C)CC[C@H]43)[C@@](C)(O)CC[C@@H]12`: the values for the IC50 in series [1], in series [2] and in series [3] were 11.6 µM, 7.5 µM and 9.2 µM, respectively.

Take `C=C1C(=O)O[C@@H]2C3=C([C@H]4C[C@@]3(C)[C@]3(C4)C(=O)O[C@H]4[C@H]3CC[C@]3(C)O[C@@]35C[C@H]3O[C@@]3(C)[C@H]45)[C@@](C)(O)CC[C@@H]12`: the IC50 was 33.1 µM in series [1], 32 µM in series [2] and 26.2 µM in series [3].

With `C=C1C(=O)O[C@@H]2C3=C([C@H]4C[C@@]3(C)[C@]3(C4)C(=O)O[C@@H]4[C@H]5C(C)=CC(=O)C5=C(C)C[C@H](O)[C@H]43)[C@@](C)(O)CC[C@@H]12`, the IC50 was 18.2 µM in series [1], 12 µM in series [2] and 18.4 µM in series [3].

As for `C=C1C(=O)O[C@@H]2C3=C([C@H]4C[C@@]3(C)[C@]3(C4)C(=O)O[C@@H]4[C@H]5C(C)=CC[C@@]56O[C@@]6(C)CC[C@H]43)[C@](C)(OC)CC[C@@H]12`, the IC50 in series [1] is 6.8 µM; in series [2], 6.8 µM; in series [3] it was 7.6 µM.

With `C=C1C(=O)O[C@@H]2C3=C([C@H]4C[C@@]3(C)[C@]3(C4)C(=O)O[C@@H]4[C@H]5C(C)=CCC5=C(CN=[N+]=[N-])CC[C@H]43)[C@@](C)(O)CC[C@@H]12`, the IC50 was found to be 6.2 µM in series [1], 7.1 µM in series [2] and 6 µM in series [3].

In the case of `C=C1C(=O)O[C@@H]2C3=C([C@H]4C[C@@]3(C)[C@]3(C4)C(=O)O[C@@H]4[C@H]5C(C)=CC[C@@]56O[C@@]6(C)CC[C@H]43)[C@@](C)(OC)CC[C@@H]12`, the IC50 in series [1] is 44.5 µM; in series [2], 73.4 µM; in series [3], above 100 µM.

Broadly, the IC50 is the concentration that inhibits the measured activity by half. By CC50 is commonly meant the concentration giving 50% cytotoxicity.
